Key:
[1] = tested on: monocyte-derived CD206+ macrophages; assay: CD206 targeting assay: uptake, killing and apoptosis of monocyte-derived CD206+ macrophages; type: cell-based
[2] = tested on: luciferase-expressing M. tuberculosis H37Rv strain (M.tb-Lux); assay: Anti-bacterial activity against M.tb in human macrophages (luminescence); type: cell-based; conditions: drug equivalency; up to 72 h

| SMILES | killing / toxicity to CD206 expressing macrophages (Annexin levels) ([1]; FIG. 17) | apoptosis induction (Annexin-V expression on MOs and in tumor tissue) ([1]; overnight) | lowest concentration at which activity against M.tb was maintained [2] [µM] |
| --- | --- | --- | --- |
| COc1cccc2c1C(=O)c1c(O)c3c(c(O)c1C2=O)C[C@@](O)(C(=O)CO)C[C@@H]3O[C@H]1C[C@H](N)[C@H](O)[C@H](C)O1 [Docorubicin, doxorubicin] | no toxicity | less effect | – |
| NNC(=O)c1ccncc1 [INH, isoniazid] | – | – | 0.0312 |
